Where a name gives a salt, the structure may show the parent alone.
biological target: adenosine A2a receptor (Homo sapiens, UniProt P29274); assay: adenosine A2a receptor agonist test (method of Murphree et al / Hannon et al); type: binding
Method: Compounds of formula I and their pharmaceutically acceptable salts are useful as pharmaceuticals. In particular, they activate the adenosine A2a receptor activation, i.e. they act as A2a receptor agonists.
For example, the compounds of Examples 7, 8, 17, 19, and 38 have Ki values of 0.003, 0.002, 0.011, 0.008, and 0.007 μM respectively.

adenosine A2a receptor, sequence (P29274 whole entry): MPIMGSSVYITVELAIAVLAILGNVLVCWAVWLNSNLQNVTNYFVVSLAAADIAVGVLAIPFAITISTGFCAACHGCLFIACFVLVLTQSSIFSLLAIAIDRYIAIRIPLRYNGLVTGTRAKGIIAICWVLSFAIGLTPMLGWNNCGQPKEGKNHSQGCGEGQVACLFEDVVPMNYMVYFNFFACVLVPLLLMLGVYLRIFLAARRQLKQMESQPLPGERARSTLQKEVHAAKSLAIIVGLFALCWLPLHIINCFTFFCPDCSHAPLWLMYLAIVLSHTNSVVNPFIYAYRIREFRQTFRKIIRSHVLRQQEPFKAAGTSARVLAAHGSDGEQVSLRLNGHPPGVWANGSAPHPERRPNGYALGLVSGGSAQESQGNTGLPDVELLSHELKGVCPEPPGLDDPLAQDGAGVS

First: CCC(=O)N[C@H]1C[C@@H](n2cnc3c(NCC(c4ccc(OC)c(OC)c4)c4ccc(OC)c(OC)c4)nc(N4CC[C@@H](NC(=O)N[C@@H]5CCNC5)C4)nc32)[C@H](O)[C@@H]1O [Example 19, N-((1S,2R,3S,4R)-4-{6-[2,2-bis-(3,4-dimethoxy-phenyl)-ethylamino]-2-[(R)-3-((R)-3-pyrrolidin-3-ylureido)-pyrrolidin-1-yl]-purin-9-yl}-2,3-dihydroxy-cyclopentyl)-propionamide trifluoroacetate]
Second: CCC(=O)N[C@H]1C[C@@H](n2cnc3c(NCC(c4ccc(OC)cc4)c4ccc(OC)cc4)nc(N4CC[C@@H](NC(=O)N[C@@H]5CCNC5)C4)nc32)[C@H](O)[C@@H]1O [Example 7, N-((1S,2R,3S,4R)-4-{6-[2,2-Bis-(4-methoxy-phenyl)-ethylamino]-2-[(R)-3-((R)-3-pyrrolidin-3-ylureido)-pyrrolidin-1-yl]-purin-9-yl}-2,3-dihydroxy-cyclopentyl)-propionamide trifluoroacetate]
The Ki of the first is 2.7-fold higher: 8 nM for the first, 3 nM for the second.

Compared with `CCC(=O)N[C@H]1C[C@@H](n2cnc3c(NCC(c4ccccc4)c4ccc(F)cc4)nc(NC4CCC(N)CC4)nc32)[C@H](O)[C@@H]1O` (stereo partly drawn) [Example 38, N-((1S,2R,3S,4R)-4-{2-(4-Amino-cyclohexylamino)-6-[2-(4-fluoro-phenyl)-2-phenyl-ethylamino]-purin-9-yl}-2,3-dihydroxy-cyclopentyl)-propionamide trifluoroacetate], `CCC(=O)N[C@H]1C[C@@H](n2cnc3c(NCC(c4ccccc4)c4ccc(F)cc4)nc(N4CC[C@@H](NC(=O)N[C@@H]5CCNC5)C4)nc32)[C@H](O)[C@@H]1O` (stereo partly drawn) [Example 8, N-((1S,2R,3S,4R)-4-{6-[2-(4-fluoro-phenyl)-2-phenyl-ethylamino]-2-[(R)-3-((R)-3-pyrrolidin-3-ylureido)-pyrrolidin-1-yl]-purin-9-yl}-2,3-dihydroxy-cyclopentyl)-propionamide trifluoroacetate] is 3.5-fold lower in Ki: 7 nM for the first, 2 nM for the second. The second binds more tightly here.

In the case of `CCC(=O)N[C@H]1C[C@@H](n2cnc3c(NCCc4ccccc4-c4ccccc4)nc(N4CC[C@@H](NC(=O)N[C@@H]5CCNC5)C4)nc32)[C@H](O)[C@@H]1O` [Example 17, N-((1S,2R,3S,4R)-4-{6-(2-biphenyl-2-yl-ethylamino)-2-[(R)-3-((R)-3-pyrrolidin-3-ylureido)-pyrrolidin-1-yl]-purin-9-yl}-2,3-dihydroxy-cyclopentyl)-propionamide trifluoroacetate], the Ki is reported as 11 nM.
